In ChEMBL document CHEMBL3991601, “The target landscape of clinical kinase drugs” (Science, 2017):
Activity calls are given as the source filed them. Rule as the data show it, for most assays here: actives have a measured Kd and inactives only a lower limit.

Experiments:
LIM domain kinase 1 = LIM domain kinase 1 (Homo sapiens, UniProt P53667)
[1] = molecular target: T1, Mitogen-activated protein kinase 15 (Homo sapiens, UniProt Q8TD08)
T1 sequence (Q8TD08 whole entry): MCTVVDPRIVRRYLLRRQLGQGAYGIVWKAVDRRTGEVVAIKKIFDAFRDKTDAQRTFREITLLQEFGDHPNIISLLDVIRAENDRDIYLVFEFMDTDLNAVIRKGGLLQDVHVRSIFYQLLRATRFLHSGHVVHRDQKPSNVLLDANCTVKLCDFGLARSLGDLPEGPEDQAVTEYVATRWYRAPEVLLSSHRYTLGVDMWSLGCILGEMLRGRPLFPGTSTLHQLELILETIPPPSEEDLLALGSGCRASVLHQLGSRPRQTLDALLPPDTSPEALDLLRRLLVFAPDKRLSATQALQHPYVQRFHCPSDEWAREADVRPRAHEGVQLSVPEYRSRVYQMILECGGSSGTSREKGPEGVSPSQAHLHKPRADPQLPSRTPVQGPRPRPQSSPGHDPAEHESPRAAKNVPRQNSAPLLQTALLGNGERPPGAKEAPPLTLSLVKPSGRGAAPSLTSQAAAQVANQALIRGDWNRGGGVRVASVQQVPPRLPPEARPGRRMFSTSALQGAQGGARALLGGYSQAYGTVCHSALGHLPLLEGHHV

[2] = molecular target: T2, Ribosyldihydronicotinamide dehydrogenase [quinone] (Homo sapiens, UniProt P16083)
T2 sequence (P16083 whole entry): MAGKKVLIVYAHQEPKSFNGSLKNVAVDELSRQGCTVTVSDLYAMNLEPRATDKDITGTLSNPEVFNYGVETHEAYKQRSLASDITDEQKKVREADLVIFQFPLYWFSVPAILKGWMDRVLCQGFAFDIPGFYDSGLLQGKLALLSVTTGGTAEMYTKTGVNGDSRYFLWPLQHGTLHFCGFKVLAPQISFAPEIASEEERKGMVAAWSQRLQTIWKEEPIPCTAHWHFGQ

[3] = molecular target: T3, Dynamin-like GTPase OPA1, mitochondrial (Homo sapiens, UniProt O60313)
T3 sequence (O60313 whole entry): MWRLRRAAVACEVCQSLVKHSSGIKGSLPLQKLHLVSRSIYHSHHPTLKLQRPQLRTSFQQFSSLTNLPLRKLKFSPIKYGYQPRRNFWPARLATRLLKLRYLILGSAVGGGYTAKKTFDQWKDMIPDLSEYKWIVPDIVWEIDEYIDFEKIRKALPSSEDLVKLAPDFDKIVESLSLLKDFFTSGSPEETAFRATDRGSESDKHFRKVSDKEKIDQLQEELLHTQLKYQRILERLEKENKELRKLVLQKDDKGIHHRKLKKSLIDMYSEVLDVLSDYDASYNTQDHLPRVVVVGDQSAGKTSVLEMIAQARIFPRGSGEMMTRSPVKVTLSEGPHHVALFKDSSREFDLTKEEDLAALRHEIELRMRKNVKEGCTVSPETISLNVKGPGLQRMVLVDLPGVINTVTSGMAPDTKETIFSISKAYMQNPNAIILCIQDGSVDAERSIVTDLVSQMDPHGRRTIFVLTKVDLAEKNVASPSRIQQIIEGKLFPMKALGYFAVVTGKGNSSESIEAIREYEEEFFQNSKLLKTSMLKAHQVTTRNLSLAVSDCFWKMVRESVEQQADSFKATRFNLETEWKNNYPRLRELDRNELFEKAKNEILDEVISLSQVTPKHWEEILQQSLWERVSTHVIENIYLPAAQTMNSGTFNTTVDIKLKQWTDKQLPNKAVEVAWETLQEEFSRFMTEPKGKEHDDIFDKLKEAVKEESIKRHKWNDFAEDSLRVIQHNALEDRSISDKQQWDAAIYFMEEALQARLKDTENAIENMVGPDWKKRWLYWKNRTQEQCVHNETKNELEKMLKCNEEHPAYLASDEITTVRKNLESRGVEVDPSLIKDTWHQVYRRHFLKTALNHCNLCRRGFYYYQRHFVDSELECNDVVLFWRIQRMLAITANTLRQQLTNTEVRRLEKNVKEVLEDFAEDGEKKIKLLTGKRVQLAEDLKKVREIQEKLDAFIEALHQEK

[4] = molecular target: Protein-tyrosine kinase 6 (Homo sapiens, UniProt Q13882)
Chain of Protein-tyrosine kinase 6 (Q13882 whole entry): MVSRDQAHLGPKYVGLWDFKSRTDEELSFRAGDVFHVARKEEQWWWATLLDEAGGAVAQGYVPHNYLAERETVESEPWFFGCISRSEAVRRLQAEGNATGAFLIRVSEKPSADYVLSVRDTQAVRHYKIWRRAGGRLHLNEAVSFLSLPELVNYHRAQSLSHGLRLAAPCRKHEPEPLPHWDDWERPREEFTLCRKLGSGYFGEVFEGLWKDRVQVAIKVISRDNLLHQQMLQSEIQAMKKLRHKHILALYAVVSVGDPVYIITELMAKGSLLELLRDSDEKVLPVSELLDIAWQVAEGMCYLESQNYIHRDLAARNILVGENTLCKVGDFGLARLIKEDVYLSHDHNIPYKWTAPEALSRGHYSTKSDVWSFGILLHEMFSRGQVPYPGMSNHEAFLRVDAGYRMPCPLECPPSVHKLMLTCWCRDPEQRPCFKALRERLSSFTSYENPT

[5] = molecular target: Receptor-interacting serine/threonine-protein kinase 2 (Homo sapiens, UniProt O43353)
Chain of Receptor-interacting serine/threonine-protein kinase 2 (O43353 whole entry): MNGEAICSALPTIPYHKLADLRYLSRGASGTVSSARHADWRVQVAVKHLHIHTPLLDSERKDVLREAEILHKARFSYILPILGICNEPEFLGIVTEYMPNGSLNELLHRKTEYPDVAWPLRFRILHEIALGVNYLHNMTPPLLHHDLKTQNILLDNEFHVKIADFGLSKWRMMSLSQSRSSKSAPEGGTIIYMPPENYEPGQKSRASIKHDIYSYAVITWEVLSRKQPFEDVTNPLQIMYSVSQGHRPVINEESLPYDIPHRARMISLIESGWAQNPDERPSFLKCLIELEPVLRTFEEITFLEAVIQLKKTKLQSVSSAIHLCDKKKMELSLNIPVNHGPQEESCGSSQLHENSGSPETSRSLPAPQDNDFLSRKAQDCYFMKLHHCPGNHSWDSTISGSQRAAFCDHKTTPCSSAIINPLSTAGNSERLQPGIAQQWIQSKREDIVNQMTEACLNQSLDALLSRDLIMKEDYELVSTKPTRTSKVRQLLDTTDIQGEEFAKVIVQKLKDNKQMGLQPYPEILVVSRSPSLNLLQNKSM

[6] = molecular target: Ribosomal protein S6 kinase alpha-3 (Homo sapiens, UniProt P51812)
Chain of Ribosomal protein S6 kinase alpha-3 (P51812 whole entry): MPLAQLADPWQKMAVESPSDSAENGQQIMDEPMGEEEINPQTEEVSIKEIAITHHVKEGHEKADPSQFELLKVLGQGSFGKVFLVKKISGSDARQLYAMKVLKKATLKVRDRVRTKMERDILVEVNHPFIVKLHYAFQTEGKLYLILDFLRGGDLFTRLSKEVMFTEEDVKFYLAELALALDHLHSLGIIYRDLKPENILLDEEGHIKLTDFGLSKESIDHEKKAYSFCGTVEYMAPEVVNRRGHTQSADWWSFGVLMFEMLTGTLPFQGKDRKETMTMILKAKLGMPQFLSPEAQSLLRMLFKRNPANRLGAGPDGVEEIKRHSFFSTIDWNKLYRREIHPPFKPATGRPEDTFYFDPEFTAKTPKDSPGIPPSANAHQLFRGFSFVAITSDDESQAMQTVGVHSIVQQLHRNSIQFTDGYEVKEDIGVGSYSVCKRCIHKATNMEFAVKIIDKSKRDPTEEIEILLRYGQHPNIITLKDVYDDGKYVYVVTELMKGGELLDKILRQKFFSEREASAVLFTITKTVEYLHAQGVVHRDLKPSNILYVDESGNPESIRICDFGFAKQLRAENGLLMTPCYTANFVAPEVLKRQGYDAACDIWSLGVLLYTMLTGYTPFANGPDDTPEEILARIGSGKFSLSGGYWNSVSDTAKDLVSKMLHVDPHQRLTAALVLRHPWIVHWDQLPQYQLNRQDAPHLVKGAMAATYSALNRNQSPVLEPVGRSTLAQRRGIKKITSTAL

TGF-beta receptor type-1 = molecular target: T4, TGF-beta receptor type-1 (Homo sapiens, UniProt P36897)
T4 sequence (P36897 whole entry): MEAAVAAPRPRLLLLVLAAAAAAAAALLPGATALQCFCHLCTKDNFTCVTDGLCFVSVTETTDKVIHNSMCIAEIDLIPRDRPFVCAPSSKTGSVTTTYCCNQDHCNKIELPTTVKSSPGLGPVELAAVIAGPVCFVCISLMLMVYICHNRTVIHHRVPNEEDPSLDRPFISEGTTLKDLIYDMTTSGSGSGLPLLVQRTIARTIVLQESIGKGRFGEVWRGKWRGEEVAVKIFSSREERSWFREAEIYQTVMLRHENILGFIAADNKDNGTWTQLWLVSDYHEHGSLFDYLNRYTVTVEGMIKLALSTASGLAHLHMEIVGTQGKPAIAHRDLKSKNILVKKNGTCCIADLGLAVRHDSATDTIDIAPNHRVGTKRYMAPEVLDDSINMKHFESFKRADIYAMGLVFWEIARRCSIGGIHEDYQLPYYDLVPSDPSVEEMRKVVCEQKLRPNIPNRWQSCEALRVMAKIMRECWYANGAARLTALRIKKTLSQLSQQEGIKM

[7] = molecular target: T5, Serine/threonine-protein kinase ULK3 (Homo sapiens, UniProt Q6PHR2)
T5 sequence (Q6PHR2 whole entry): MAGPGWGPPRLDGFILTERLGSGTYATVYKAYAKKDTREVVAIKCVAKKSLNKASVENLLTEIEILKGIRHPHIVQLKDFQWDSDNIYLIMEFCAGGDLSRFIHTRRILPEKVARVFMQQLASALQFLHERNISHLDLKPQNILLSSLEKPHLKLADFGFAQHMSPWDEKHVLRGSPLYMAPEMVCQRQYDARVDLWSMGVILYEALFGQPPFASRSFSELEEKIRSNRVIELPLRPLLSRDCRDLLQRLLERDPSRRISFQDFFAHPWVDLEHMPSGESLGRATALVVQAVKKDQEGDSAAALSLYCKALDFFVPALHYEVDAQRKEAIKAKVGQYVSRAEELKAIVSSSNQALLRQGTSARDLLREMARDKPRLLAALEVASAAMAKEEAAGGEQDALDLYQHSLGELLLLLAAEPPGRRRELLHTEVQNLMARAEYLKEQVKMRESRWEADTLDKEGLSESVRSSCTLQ
Also: in the data inactive means no Kd found up to 30 µM.

Chain of LIM domain kinase 1 (P53667 whole entry, the tested form may be a part): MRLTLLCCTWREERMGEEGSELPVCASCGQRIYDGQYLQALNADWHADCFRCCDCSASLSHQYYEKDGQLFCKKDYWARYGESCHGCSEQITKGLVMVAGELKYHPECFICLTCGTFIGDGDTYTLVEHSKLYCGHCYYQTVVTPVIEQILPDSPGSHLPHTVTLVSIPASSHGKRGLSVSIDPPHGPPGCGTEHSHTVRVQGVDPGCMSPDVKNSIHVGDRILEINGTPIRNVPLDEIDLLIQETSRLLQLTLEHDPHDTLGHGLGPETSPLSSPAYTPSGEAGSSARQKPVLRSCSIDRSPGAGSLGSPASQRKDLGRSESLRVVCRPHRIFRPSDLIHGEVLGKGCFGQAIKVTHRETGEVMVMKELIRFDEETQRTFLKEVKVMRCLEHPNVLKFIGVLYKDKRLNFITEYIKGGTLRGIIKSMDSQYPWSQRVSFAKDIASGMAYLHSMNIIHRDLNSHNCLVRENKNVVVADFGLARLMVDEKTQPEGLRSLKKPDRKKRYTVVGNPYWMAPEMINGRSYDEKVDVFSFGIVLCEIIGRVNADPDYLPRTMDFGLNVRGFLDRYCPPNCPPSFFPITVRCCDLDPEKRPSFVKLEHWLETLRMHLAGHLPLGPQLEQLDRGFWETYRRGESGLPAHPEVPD

SMILES	Kd (LIM domain kinase 1)	Kd [1]	Kd [2]	Kd [3]	Kd [4]	Kd [5]	Kd [6]	Kd (TGF-beta receptor type-1)	Kd [7]
O=c1sn(-c2cccc3ccccc23)c(=O)n1Cc1ccccc1 [TIDEGLUSIB]	> 30 µM (inactive)	> 30 µM (inactive)	> 30 µM (inactive)	> 30 µM (inactive)	> 30 µM (inactive)	> 30 µM (inactive)	> 30 µM (inactive)	> 30 µM (inactive)	> 30 µM (inactive)
Cn1cc(-c2ccc3nnc(C(F)(F)c4ccc5ncccc5c4)n3n2)cn1 [JNJ-38877605]	> 30 µM (inactive)	> 30 µM (inactive)	0.323 µM (active)	> 30 µM (inactive)	> 30 µM (inactive)	> 30 µM (inactive)	> 30 µM (inactive)	> 30 µM (inactive)	> 30 µM (inactive)
Cn1ncc(Cl)c1-c1cc(C(=O)N[C@H](CN)Cc2cccc(F)c2)sc1Cl [AFURESERTIB]	> 30 µM (inactive)	> 30 µM (inactive)	> 30 µM (inactive)	> 30 µM (inactive)	> 30 µM (inactive)	> 30 µM (inactive)	> 30 µM (inactive)	> 30 µM (inactive)	> 30 µM (inactive)
CNS(=O)(=O)Nc1nccc(Cc2c(C)c3ccc(Oc4ncccn4)cc3oc2=O)c1F [AVUTOMETINIB]	> 30 µM (inactive)	> 30 µM (inactive)	> 30 µM (inactive)	> 30 µM (inactive)	> 30 µM (inactive)	> 30 µM (inactive)	> 30 µM (inactive)	> 30 µM (inactive)	> 30 µM (inactive)
CCc1cnn2c(NCc3ccc[n+]([O-])c3)cc(N3CCCC[C@H]3CCO)nc12 [DINACICLIB]		> 30 µM (inactive)	> 30 µM (inactive)	> 30 µM (inactive)	> 30 µM (inactive)	> 30 µM (inactive)		> 30 µM (inactive)	> 30 µM (inactive)
COc1cc2nccc(Oc3ccc(NC(=O)Nc4cc(C)on4)c(Cl)c3)c2cc1OC [TIVOZANIB]	> 30 µM (inactive)		> 30 µM (inactive)	> 30 µM (inactive)	0.787 µM (active)		> 30 µM (inactive)	> 30 µM (inactive)	> 30 µM (inactive)
COC(=O)[C@@]1(O)C[C@H]2O[C@]1(C)n1c3ccccc3c3c4c(c5c6ccccc6n2c5c31)C(=O)NC4 [K-252A]	> 30 µM (inactive)	0.167 µM (active)	4.03 µM (active)	> 30 µM (inactive)	> 30 µM (inactive)		2.99 µM (active)	2.18 µM (active)	0.107 µM (active)
Cc1cn(-c2cc(NC(=O)c3ccc(C)c(Nc4nccc(-c5cccnc5)n4)c3)cc(C(F)(F)F)c2)cn1 [NILOTINIB]			1.48 µM (active)	> 30 µM (inactive)					
CNC(=O)c1cc(Oc2ccc(NC(=O)Nc3ccc(Cl)c(C(F)(F)F)c3)c(F)c2)ccn1 [REGORAFENIB]	0.616 µM (active)	> 30 µM (inactive)	> 30 µM (inactive)	> 30 µM (inactive)	> 30 µM (inactive)		> 30 µM (inactive)	> 30 µM (inactive)	> 30 µM (inactive)
Cc1cc(Nc2cc(N3CCN(C)CC3)nc(/C=C/c3ccccc3)n2)n[nH]1 [ENMD-2076]		> 30 µM (inactive)	> 30 µM (inactive)	> 30 µM (inactive)		> 30 µM (inactive)		> 30 µM (inactive)	0.476 µM (active)
OCCn1cc(-c2cnc3nnn(Cc4ccc5ncccc5c4)c3n2)cn1 [PF-04217903]		> 30 µM (inactive)	> 30 µM (inactive)	> 30 µM (inactive)	> 30 µM (inactive)	> 30 µM (inactive)		> 30 µM (inactive)	> 30 µM (inactive)
O=C(Nc1cccc(Cl)c1)Nc1ncc(CCNc2ncnc3ccsc23)s1 [SNS-314]		> 30 µM (inactive)	> 30 µM (inactive)	> 30 µM (inactive)		> 30 µM (inactive)		> 30 µM (inactive)	> 30 µM (inactive)
Cc1nc(N)sc1-c1ccnc(Nc2ccc(N3CCOCC3)cc2)n1 [CYC-116]	0.984 µM (active)	> 30 µM (inactive)	0.648 µM (active)	> 30 µM (inactive)					0.801 µM (active)
COCCNCc1ccc(-c2cc3nccc(Oc4ccc(NC(=S)NC(=O)Cc5ccc(F)cc5)cc4F)c3s2)nc1 [GLESATINIB]	> 30 µM (inactive)	> 30 µM (inactive)	> 30 µM (inactive)	> 30 µM (inactive)		> 30 µM (inactive)	> 30 µM (inactive)	> 30 µM (inactive)	> 30 µM (inactive)
CCn1c(-c2nonc2N)nc2c(C#CC(C)(C)O)ncc(OC[C@H]3CCCNC3)c21 [GSK-690693]			> 30 µM (inactive)	> 30 µM (inactive)					
C1=C/COCc2cc(ccc2OCCN2CCCC2)Nc2nccc(n2)-c2cccc(c2)COC/1 [PACRITINIB]	> 30 µM (inactive)	> 30 µM (inactive)		> 30 µM (inactive)	> 30 µM (inactive)	> 30 µM (inactive)	> 30 µM (inactive)	> 30 µM (inactive)	> 30 µM (inactive)
CN1CCN(c2ccc3nc(-c4c(N)c5c(F)cccc5[nH]c4=O)[nH]c3c2)CC1 [DOVITINIB]			3.01 µM (active)	> 30 µM (inactive)					
Nc1nc(N)c2nc(-c3cccc(O)c3)c(-c3cccc(O)c3)nc2n1 [TG100-115]			> 30 µM (inactive)	> 30 µM (inactive)	> 30 µM (inactive)				
O=C(Nc1ccc(-c2ccnc(Nc3ccc(N4CCOCC4)cc3)n2)cc1)C1CCCN1 (stereo not drawn) [XL-019]		> 30 µM (inactive)	> 30 µM (inactive)	> 30 µM (inactive)	> 30 µM (inactive)	> 30 µM (inactive)	> 30 µM (inactive)	> 30 µM (inactive)	0.297 µM (active)
